Test results as given in patent US8691799B2, “Materials and methods for treatment of cancer and identification of anti-cancer compounds” (priority 2001, dated 2014).

Tests used:
Type in all cases: biochemical
[1] = biological target: T1, JAK2 (Homo sapiens, UniProt O60674); experiment: JAK kinase autophosphorylation assay on immunoprecipitates (JAK2); conditions: immunoprecipitates from A549, MDA-MB-468 or v-Src/NIH 3T3 cells; AG490 100 μM, PD180970 2 μM
T1 construct: Src, JAK1, and JAK2 were immunoprecipitated from either A549, MDA-MB-468, or v-Src/NIH 3T3 cells; endogenous in cells; host or cells: A549, MDA-MB-468, v-Src transformed NIH 3T3 (immunoprecipitates)
Experimental: (§1) JAK Kinase Assays. A549, MDA-MB-468, and v-Src transformed NIH 3T3 cells were harvested, washed three times in PBS-V (10 mM sodium phosphate, pH 7.4, 137 mM NaCl, 1 mM sodium orthovanadate) then lysed for 30 min on ice in JAK kinase lysis buffer (25 mM Hepes, pH 7.4, 0.1% Triton-X-100, 0.5 mM DTT, 1 mM sodium orthovanadate, 1 mM PMSF, 10 μg/ml aprotinin, 10 μg/ml leupeptin). Samples were spun at high speed to clear, and 800-1000 μg of protein was immunoprecipitated per treatment condition with 50 ng of either JAK1 or JAK2 antibody (Santa Cruz Biotechnology) rocking overnight at 4° C. 25 μl of protein A/G PLUS agarose then was added and rocking continued for 1 hr at 4° C. Samples were spun to collect agarose pellet, and pellet washed twice in wash buffer (50 mM Hepes, pH 7.4, 0.1% Triton-X-100, 0.5 mM DTT, 150 mM NaCl) and once in phosphorylation buffer (50 mM Hepes, pH 7.4, 0.1% Triton-X-100, 0.5 mM DTI, 6.25 mM manganese chloride, 100 mM NaCl). Kinase reactions were performed at 30° C. for 15 min in a final volume of 100 μl of phosphorylation buffer. Samples were pretreated with DMSO control, JSI-124, and control compounds (AG490, 100 μM, and […], 2 μM) before addition of 20 μCi/sample y-[^32P]ATP. Reaction was halted using stop buffer (wash buffer plus 10 mM EDTA), samples spun to collect pellet, then pellet washed once with stop buffer and twice with wash buffer. Samples were then placed in 2×SDS-PAGE sample buffer, boiled at 100° C., and run on 8% SDS-PAGE gels to separate proteins. Autophosphorylation results were visualized by autoradiography.

[2] = tested on: Src; experiment: Src kinase autophosphorylation assay on immunoprecipitates; conditions: immunoprecipitates from A549, MDA-MB-468 or v-Src/NIH 3T3 cells
Experimental: Src Kinase Assay. A549, MDA-MB-468, and v-Src cells were harvested and lysed for 30 min on ice in RIPA150 buffer (10 mM Tris, pH 7.5, 150 mM NaCl, 10% glycerol, 5 mM EDTA, 1% Triton-X-100, 0.1% SDS, 100 μM sodium orthovanadate, 10 μg/ml aprotinin, 10 μg/ml leupeptin, 1 μg/ml antipain). Samples were spun at high speed to clear, then 1000 μg of protein were immunoprecipitated per treatment condition with 2 μg v-Src antibody (Ab-1, Oncogene Research Products, San Diego, Calif.) rocking overnight at 4° C. 25 μl of protein A/G PLUS agarose then was added and rocking continued for 4 hr at 4° C. Samples were spun to collect agarose pellet, and pellet washed three times in RIPA150 buffer, twice in RIPA10 buffer (10 mM Tris, pH 7.5, 10 mM NaCl, 10% glycerol, 5 mM EDTA, 1% Triton-X-100, 0.1% SDS, 100 μM sodium orthovanadate 10 μg/ml aprotinin, 10 μg/ml leupeptin, 1 μg/ml antipain), and three times in 40 mM Tris, pH 7.4. Pellet was then resuspended in 30 μl kinase reaction buffer (20 mM Tris, pH 7.4, 5 mM MgCl2) containing 10 μCi γ-[^32P]ATP. Inhibitors were preincubated for several minutes before the addition of the ATP. Kinase reactions were carried out at room temperature for 15 min. Reaction was stopped with the addition of 2×SDS-PAGE sample buffer. Samples were boiled and run on 10% SDS-PAGE gels. Autophosphorylation results were visualized by autoradiography.

[3] = tested on: JAK1; experiment: JAK kinase autophosphorylation assay on immunoprecipitates (JAK1); conditions: immunoprecipitates from MDA-MB-468 or v-Src/NIH 3T3 cells; AG490 100 μM, PD180970 2 μM
Experimental: as §1

T1 sequence (O60674 whole entry): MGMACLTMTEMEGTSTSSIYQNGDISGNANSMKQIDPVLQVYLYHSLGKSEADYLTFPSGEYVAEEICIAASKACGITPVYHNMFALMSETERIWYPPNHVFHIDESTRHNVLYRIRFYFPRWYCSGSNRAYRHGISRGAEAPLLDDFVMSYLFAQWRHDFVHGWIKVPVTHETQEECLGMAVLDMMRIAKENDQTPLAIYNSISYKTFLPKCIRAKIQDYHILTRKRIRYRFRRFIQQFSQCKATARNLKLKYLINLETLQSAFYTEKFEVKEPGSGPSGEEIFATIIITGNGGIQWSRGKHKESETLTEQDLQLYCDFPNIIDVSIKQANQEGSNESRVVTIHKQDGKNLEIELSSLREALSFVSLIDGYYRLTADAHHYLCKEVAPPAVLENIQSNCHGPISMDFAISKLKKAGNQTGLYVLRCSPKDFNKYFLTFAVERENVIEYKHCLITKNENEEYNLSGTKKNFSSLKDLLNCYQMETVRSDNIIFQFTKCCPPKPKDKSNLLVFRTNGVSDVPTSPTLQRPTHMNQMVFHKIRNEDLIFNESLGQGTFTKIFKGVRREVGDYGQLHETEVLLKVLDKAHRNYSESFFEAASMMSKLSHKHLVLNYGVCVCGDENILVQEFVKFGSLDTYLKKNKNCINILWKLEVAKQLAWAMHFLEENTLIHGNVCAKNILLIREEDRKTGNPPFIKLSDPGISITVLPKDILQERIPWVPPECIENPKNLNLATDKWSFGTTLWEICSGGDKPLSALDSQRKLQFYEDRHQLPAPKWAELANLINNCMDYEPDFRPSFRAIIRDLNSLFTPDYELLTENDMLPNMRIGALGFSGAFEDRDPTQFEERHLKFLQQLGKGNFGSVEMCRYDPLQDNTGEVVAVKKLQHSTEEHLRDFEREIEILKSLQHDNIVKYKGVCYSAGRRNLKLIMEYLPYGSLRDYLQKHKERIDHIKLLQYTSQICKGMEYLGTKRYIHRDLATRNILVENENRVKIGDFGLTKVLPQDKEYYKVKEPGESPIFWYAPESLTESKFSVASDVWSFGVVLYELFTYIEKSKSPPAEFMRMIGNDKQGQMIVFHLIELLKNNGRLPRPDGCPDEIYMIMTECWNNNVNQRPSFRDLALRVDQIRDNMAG

Row | SMILES | JAK2 kinase activity (autophosphorylation) in vitro [1] | Src kinase activity (autophosphorylation) in vitro [2] | JAK1 kinase activity (autophosphorylation) in vitro [3]
1 | N#C/C(=C/c1ccc(O)c(O)c1)C(=O)NCc1ccccc1 [AG490] | inhibited JAK1 and JAK2 | not Src kinase activities | inhibited JAK1 and JAK2
2 | Cc1cc(Nc2ncc3cc(-c4c(Cl)cccc4Cl)c(=O)n(C)c3n2)ccc1F [PD180970] | not JAK1 or JAK2 activities | inhibits Src | not JAK1 or JAK2 activities
